Experimental data from PMC7992063 (ACS Omega, 2021).
Entries after “also recorded” stand apart in the source; their conditions may differ. Like-named read-outs stand apart in the source and are kept apart here.

Columns and labels:
[1] = tested on: SARS-CoV-2 (Strain USA_WA1/2020); assay: microbe, parasite or virus in culture; type: cell-based
[2] = tested on: SARS-CoV-2 (Strain USA_WA1/2020); assay: microbe, parasite or virus in culture; type: cell-based; settings: Severe acute respiratory syndrome coronavirus 2, Caco-2, 72 h
[3] = tested on: SARS-CoV-2 (isolate USA WA1/2020); assay: microbe, parasite or virus in culture; type: cell-based; settings: for IC50: Severe acute respiratory syndrome coronavirus 2, Calu-3, read-out: IC50 (EC50), infection (dsRNA+ cells/total cell number)
SARS-CoV-2-nLuc = assay: microbe, parasite or virus in culture; type: cell-based; settings: Severe acute respiratory syndrome coronavirus 2, A549-ACE2
[4] = tested on: murine hepatitis virus (MHV); assay: microbe, parasite or virus in culture; type: cell-based; settings: Murine coronavirus
HCoV 229E = type: cell-based, human coronavirus 229E
[5] = target: SARS-CoV-2 spike receptor binding domain (RBD) (Severe acute respiratory syndrome coronavirus 2, UniProt P0DTC2)
rVSV-SARS-CoV-2 S = type: cell-based
SARS-CoV-2 [6] = type: cell-based
Vero 76 cells = settings: African green monkey
EBOV glycoprotein = settings: cited from earlier work
in vitro [7] = settings: African green monkey
in vitro [8] = settings: human
Vero cells = settings: cited from earlier work
Calu-3 cells = settings: cited from earlier work
SARS-CoV-2 [9] = settings: cited from earlier work
SARS-CoV-2 pseudovirus = settings: mouse, in vivo; cited from earlier work
SARS-CoV-2 [10] = assay: microbe, parasite or virus in culture; type: cell-based
SARS-CoV-2 [11] = type: cell-based; settings: 10 μM; 24 h
spike RBD = settings: read-out: affinity for spike RBD; cited from earlier work
SARS-CoV-2 [12] = type: cell-based; remark: listed apart in the source
lysosomal pH = settings: read-out: IC50, lysosomotropic; cited from earlier work
SARS-CoV-2 [13] = settings: cited from earlier work; remark: listed apart in the source
[14] = Severe acute respiratory syndrome coronavirus 2, Vero 76

With `COc1ccc2nc3cc(Cl)ccc3c(Nc3cc(CN4CCCC4)c(O)c(CN4CCCC4)c3)c2n1` [pyronaridine, 4-[(7-chloro-2-methoxybenzo[b][1,5]naphthyridin-10-yl)amino]-2,6-bis(1-pyrrolidinylmethyl)phenol phosphate (1:4)] the EC50 [1] was over 3.85 µM, the “activity against SARS-CoV-2 in Vero 76” value [1] was “no activity” and the EC50 [1, 14] was over 3.52 µM. The EC90 [2] was 5.49 µM, the “activity against SARS-CoV-2 in Calu-3” value [3] was “no activity” and the IC50 (SARS-CoV-2-nLuc) was 0.198 µM. The IC50 [4] was 2.75 µM, the “decrease of virus titer” value (HCoV 229E) was 2.83 logTCID50/mL and the “weaker affinity for spike RBD compared to ACE2” value [5] was 20–40 times. The “activity in VSV-pseudotype neutralization assay” value (rVSV-SARS-CoV-2 S) was “no measurable activity”, the neutralization (rVSV-SARS-CoV-2 S) was under 50% and the “activity against SARS-CoV-2 in Vero E6” value (SARS-CoV-2 [6]) was “no activity; also recorded: no inhibition”. The CC50 (Vero 76 cells) was 3.85 µM, the Kd (EBOV glycoprotein) was 7.34 µM and the CC50 (in vitro [7]) was 3.52 µM. The CC50 (in vitro [8]) was 51.6 µM, the CC50 (Vero cells) was 37.1 µM and the CC50 (Calu-3 cells) was 43.1 µM.

In the case of `CCN(CC)CCCC(C)Nc1c2ccc(Cl)cc2nc2ccc(OC)cc12` (stereo not shown) [quinacrine], the EC50 [1] is reported as over 6.87 µM, the “activity against SARS-CoV-2 in Vero 76” value [1] is reported as “no in vitro activity” and the EC50 [1, 14] is reported as over 7.33 µM. For the same molecule, the EC90 [2] was 10.5 µM, the “activity against SARS-CoV-2 in Calu-3” value [3] was “no in vitro activity” and the IC50 (SARS-CoV-2-nLuc) was under 0.2 µM. For the same molecule, the IC50 [4] was 2.3 µM, the “decrease of virus titer” value (HCoV 229E) was 3.9 logTCID50/mL and the “binding to spike RBD” value [5] was “did not demonstrate reproducible binding”. The “activity against SARS-CoV-2 in Vero E6” value (SARS-CoV-2 [6]) was “no in vitro activity; also recorded: no inhibition”, the CC50 (Vero 76 cells) was 6.87 µM and the Kd (EBOV glycoprotein) was 7.55 µM. The EC50 (SARS-CoV-2 [9]) was 2.83 µM, the infected cells (SARS-CoV-2 pseudovirus) was “significant decrease” and the CC50 (in vitro [7]) was 7.33 µM. It also gave a CC50 (in vitro [8]) of 229 µM.

With `CCC(CC)COC(=O)[C@H](C)N[P@](=O)(OC[C@H]1O[C@@](C#N)(c2ccc3c(N)ncnn23)[C@H](O)[C@@H]1O)Oc1ccccc1` [remdesivir] the IC50 [3] was 0.016 µM, the inhibition at 0.6 µM (SARS-CoV-2 [10]; Severe acute respiratory syndrome coronavirus 2, Calu-3, read-out: inhibition PFU/mL) was about 100% and the “inhibition of SARS-CoV-2, cell-associated viral RNA levels” value (SARS-CoV-2 [11]) was about 50%.

For ACE2, the Kd (spike RBD) is listed as about 0.015 µM.

With `CCN(CC)CCOc1ccc2c(c1)C(=O)c1cc(OCCN(CC)CC)ccc1-2` [tilorone] the EC50 [1, 14] was 6.62 µM, the EC90 [2] was 29 µM and the IC50 [3] was 10.8 µM. For the same molecule, the IC50 (SARS-CoV-2 [10]; Severe acute respiratory syndrome coronavirus 2, Calu-3, 48 h) was about 9 µM, the antiviral activity (SARS-CoV-2 [12]) was “did not show antiviral activity” and the IC50 (SARS-CoV-2-nLuc) was 0.18 µM. The IC50 [4] was about 20 µM, the “inhibition of HCoV-229E” value (HCoV 229E) was “did not show significant inhibition” and the “weaker affinity for spike RBD compared to ACE2” value [5] was 20–40 times. The “activity in VSV-pseudotype neutralization assay” value (rVSV-SARS-CoV-2 S) was “no measurable activity”, the neutralization (rVSV-SARS-CoV-2 S) was under 50% and the “activity against SARS-CoV-2 in Vero E6” value (SARS-CoV-2 [6]) was “no inhibition”. For the same molecule, the IC50 (lysosomal pH) was about 4 µM, the Kd (EBOV glycoprotein) was 0.73 µM and the IC50 (SARS-CoV-2 [13]) was 4 µM. The CC50 (in vitro [7]) was 49.6 µM and the CC50 (in vitro [8]) was 111 µM.
